What was measured:
Assay type in all cases: functional, cell-based
[1] = system: HeLa; assay: Cytotoxicity against human HeLa cells after 48 hrs by MTS assay
[2] = system: HeLa; assay: Cytotoxicity against human HeLa cells after 24 hrs by MTS assay
[3] = system: HeLa; assay: Cytotoxicity against human HeLa cells by MTS assay; details: TDE = time-dependent effect

SMILES	IC50 [1]	IC50 [2]	Activity [3]
COc1cc(/C=C/C(=O)OC[C@H]2O[C@@](CO)(O[C@H]3O[C@H](CO)[C@@H](O)[C@H](O)[C@H]3O)[C@@H](OC(=O)/C=C/c3ccc(O)c(OC)c3)[C@@H]2O)ccc1O [HELONIOSIDE A]	> 100 µM	–	–
COc1cc(/C=C/C(=O)OC[C@H]2O[C@]3(COC(C)(C)O[C@H]4[C@H](O[C@@H]5COC(C)(C)O[C@H]5[C@@H]4O)O3)[C@@H](OC(=O)/C=C/c3ccc(OC(C)=O)c(OC)c3)[C@@H]2OC(=O)/C=C/c2ccc(OC(C)=O)c(OC)c2)ccc1OC(C)=O	0.16 µM	–	–
O=C(/C=C/c1ccc(O)cc1)OC[C@H]1O[C@@](CO)(O[C@H]2O[C@H](COC(=O)/C=C/c3ccc(O)cc3)[C@@H](O)[C@H](OC(=O)/C=C/c3ccc(O)cc3)[C@H]2O)[C@@H](OC(=O)/C=C/c2ccc(O)cc2)[C@@H]1O	1.7 µM	–	–
COc1cc(/C=C/C(=O)OC[C@H]2O[C@H](O[C@]3(CO)O[C@H](COC(=O)/C=C/c4ccc(O)cc4)[C@@H](O)[C@@H]3OC(=O)/C=C/c3ccc(O)cc3)[C@H](O)[C@@H](OC(=O)/C=C/c3ccc(O)c(OC)c3)[C@@H]2O)ccc1O	1.67 µM	–	–
COc1cc(/C=C/C(=O)OC[C@H]2O[C@]3(COC(C)(C)O[C@H]4[C@H](O[C@@H]5COC(C)(C)O[C@H]5[C@@H]4O)O3)[C@@H](O)[C@@H]2O)ccc1OC(C)=O	> 100 µM	–	–
COc1cc(/C=C/C(=O)OC[C@H]2O[C@H](O[C@]3(CO)O[C@H](COC(=O)/C=C/c4ccc(OC(C)=O)cc4)[C@@H](O)[C@@H]3OC(=O)/C=C/c3ccc(OC(C)=O)cc3)[C@H](O)[C@@H](O)[C@@H]2O)ccc1OC(C)=O	> 100 µM	–	–
COc1cc(/C=C/C(=O)OC[C@H]2O[C@H](O[C@]3(CO)O[C@H](COC(=O)/C=C/c4ccc(OC(C)=O)cc4)[C@@H](O)[C@@H]3OC(=O)/C=C/c3ccc(OC(C)=O)cc3)[C@H](O)[C@@H](OC(=O)/C=C/c3ccc(OC(C)=O)c(OC)c3)[C@@H]2O)ccc1OC(C)=O	3.14 µM	–	–
COc1cc(/C=C/C(=O)OC[C@H]2O[C@@](CO)(O[C@H]3O[C@H](CO)[C@@H](O)[C@H](O)[C@H]3O)[C@@H](OC(=O)/C=C/c3ccc(OC(C)=O)c(OC)c3)[C@@H]2O)ccc1OC(C)=O	> 100 µM	–	–
CC[C@@]1(O)C(=O)OCc2c1cc1n(c2=O)Cc2cc3ccccc3nc2-1 [CAMPTOTHECIN]	0.4 µM	–	–
COc1cc(/C=C/C(=O)OC[C@H]2O[C@H](O[C@]3(CO)O[C@H](COC(=O)/C=C/c4ccc(O)cc4)[C@@H](O)[C@@H]3OC(=O)/C=C/c3ccc(O)cc3)[C@H](O)[C@@H](O)[C@@H]2O)ccc1O [LAPATHOSIDE C]	12.6 µM	–	–
COc1cc(/C=C/C(=O)OC[C@H]2O[C@]3(COC(C)(C)O[C@H]4[C@H](O[C@@H]5COC(C)(C)O[C@H]5[C@@H]4O)O3)[C@@H](OC(=O)/C=C/c3ccc(O)c(OC)c3)[C@@H]2OC(=O)/C=C/c2ccc(O)c(OC)c2)ccc1O	4.2 µM	–	–
COc1cc(/C=C/C(=O)OC[C@H]2O[C@]3(COC(C)(C)O[C@H]4[C@H](O[C@@H]5COC(C)(C)O[C@H]5[C@@H]4O)O3)[C@@H](OC(=O)/C=C/c3ccc(OC(C)=O)c(OC)c3)[C@@H]2O)ccc1OC(C)=O	6.01 µM	27.9 µM	tde
COc1cc(/C=C/C(=O)OC[C@H]2O[C@]3(COC(C)(C)O[C@H]4[C@H](O[C@@H]5COC(C)(C)O[C@H]5[C@@H]4OC(=O)/C=C/c4ccc(OC(C)=O)c(OC)c4)O3)[C@@H](OC(=O)/C=C/c3ccc(OC(C)=O)c(OC)c3)[C@@H]2OC(=O)/C=C/c2ccc(OC(C)=O)c(OC)c2)ccc1OC(C)=O	3.22 µM	–	–
COc1cc(/C=C/C(=O)OC[C@H]2O[C@@](CO)(O[C@H]3O[C@H](CO)[C@@H](O)[C@H](O)[C@H]3O)[C@@H](OC(=O)/C=C/c3ccc(OC(C)=O)c(OC)c3)[C@@H]2OC(=O)/C=C/c2ccc(OC(C)=O)c(OC)c2)ccc1OC(C)=O	1.7 µM	–	–
COc1cc(/C=C/C(=O)OC[C@H]2O[C@@](CO)(O[C@H]3O[C@H](CO)[C@@H](O)[C@H](OC(=O)/C=C/c4ccc(O)c(OC)c4)[C@H]3O)[C@@H](OC(=O)/C=C/c3ccc(O)c(OC)c3)[C@@H]2OC(=O)/C=C/c2ccc(O)c(OC)c2)ccc1O	1.62 µM	7.9 µM	tde
CC(=O)Oc1ccc(/C=C/C(=O)OC[C@H]2O[C@@](CO)(O[C@H]3O[C@H](COC(=O)/C=C/c4ccc(OC(C)=O)cc4)[C@@H](O)[C@H](OC(=O)/C=C/c4ccc(OC(C)=O)cc4)[C@H]3O)[C@@H](OC(=O)/C=C/c3ccc(OC(C)=O)cc3)[C@@H]2O)cc1	1.86 µM	–	–
COc1cc(/C=C/C(=O)OC[C@H]2O[C@H](O[C@]3(CO)O[C@H](COC(=O)/C=C/c4ccc(O)cc4)[C@@H](O)[C@@H]3OC(=O)/C=C/c3ccc(O)cc3)[C@H](O)[C@@H](OC(=O)/C=C/c3ccc(O)cc3)[C@@H]2O)ccc1O	3.12 µM	–	–
COc1cc(/C=C/C(=O)OC[C@H]2O[C@@](CO)(O[C@H]3O[C@H](CO)[C@@H](O)[C@H](O)[C@H]3O)[C@@H](OC(=O)/C=C/c3ccc(O)c(OC)c3)[C@@H]2OC(=O)/C=C/c2ccc(O)c(OC)c2)ccc1O	22.4 µM	55.1 µM	tde

Reference: ChEMBL document CHEMBL2150953, “Synthesis and antiproliferative activity of helonioside A, 3',4',6'-tri-O-feruloylsucrose, lapathoside C and their analogs” (Eur J Med Chem, 2012)
